Patent publication US10906897B2, “Microbiocidal heterobicyclic derivatives” (priority 2015, dated 2021)

Columns and labels:
[1] = system: Glomerella lagenarium (Colletotrichum lagenarium); assay: Glomerella lagenarium (Colletotrichum lagenarium) / liquid culture (Anthracnose); format: cell-based; settings: Colletotrichum orbiculare, growth inhibition photometrically 3-4 days after application, compared to untreated control
[2] = system: Botryotinia fuckeliana (Botrytis cinerea); assay: Botryotinia fuckeliana (Botrytis cinerea) / liquid culture (Gray mould); format: cell-based; settings: growth inhibition photometrically 3-4 days after application, compared to untreated control
[3] = system: Monographella nivalis (Microdochium nivale); assay: Monographella nivalis (Microdochium nivale) / liquid culture (foot rot cereals); format: cell-based; settings: 96 h, growth inhibition photometrically 4-5 days after application, compared to untreated control
Fusarium culmorum = assay: microbe, parasite or virus in culture; format: cell-based; settings: read-out: control of Fusarium culmorum
[4] = system: Magnaporthe grisea (Pyricularia oryzae); assay: microbe, parasite or virus in culture; format: cell-based; settings: read-out: control of Magnaporthe grisea

Row | SMILES | melting point [°C] | inhibition of growth at 20 ppm [1] [%] | inhibition of growth at 20 ppm [2] [%] | also measured
1 | CC1(C)N=C(c2cnc3c(F)cccn23)c2cccc(Cl)c2C1Br (stereo not shown) | 213 to 214 | – | – | –
2 | CC1(C)N=C(c2cnc3c(F)cccn23)c2cccc(F)c2C1Br (stereo not shown) | 211 to 212 | – | – | –
3 | CC1(C)N=C(c2cnc3c(F)cccn23)c2cccc(F)c2C1=O | 160 to 161 | – | – | –
4 | CC1(C)N=C(c2cnc3ccc(O)cn23)c2cccc(F)c2C1(C)C | 321 to 322 | – | – | –
5 | CC1(C)N=C(c2cnc3c(Br)cccn23)c2cccc(F)c2C1Br (stereo not shown) | 217 to 218 | – | – | –
6 | CC1(C)N=C(c2cnc3c(Br)cccn23)c2cccc(F)c2C1O (stereo not shown) | 204 to 205 | – | – | –
7 | CC1(C)N=C(c2cnc3c(Br)cccn23)c2cccc(F)c2C1=O | 146 to 147 | – | – | –
8 | CC1(C)N=C(c2cnc3ccc(F)cn23)c2cccc(F)c2C1(C)C | 200 to 202 | – | – | –
9 | CC1(C)N=C(c2cnc3c(Br)cccn23)c2ccccc2C1=O | 204 to 205 | – | – | –
10 | CC1(C)N=C(c2cnc3c(Br)cccn23)c2ccccc2C1(F)F | 173 | – | – | –
11 | CC1(C)Cc2c(Cl)cccc2C(c2cnc3ccc(F)cn23)=N1 | 142 to 143 | – | – | –
12 | CC1(C)Cc2ccccc2C(c2cnc3cc(I)ccn23)=N1 | 190 to 193 | – | – | –
13 | Cc1cccn2ncc(C3=NC(C)(C)C(=O)c4c(F)cccc43)c12 | 141 to 143 | – | – | –
14 | CC1(C)N=C(c2cnn3cccc(Br)c23)c2ccccc2C1=O | 148 to 151 | – | – | –
15 | Cc1ccc2c(C3=NC(C)(C)C(F)(F)c4ccccc43)cnn2c1C | 160 to 161 | – | – | –
16 | CC1(C)N=C(c2cnc3ccccn23)c2cc(F)ccc2C1(C)C [Compound E-2, 7-fluoro-1-imidazo[1,2-a]pyridin-3-yl-3,3,4,4-tetramethyl-isoquinoline] | – | ≥ 80 | – | –
17 | CC1(C)Cc2c(Cl)cccc2C(c2cnc3ccccn23)=N1 [Compound E-3, 5-chloro-1-imidazo[1,2-a]pyridin-3-yl-3,3-dimethyl-4H-isoquinoline] | – | ≥ 80 | – | –
18 | CC1(C)N=C(c2cnc3c(OC(F)F)cccn23)c2cccc(F)c2C1(C)C [Compound E-7, 1-[8-(difluoromethoxy)imidazo [1,2-a]pyridin-3-yl]-5-fluoro-3,3,4,4-tetramethyl-isoquinoline] | 121 to 122 | ≥ 80 | ≥ 80 | –
19 | CC1(C)Cc2c(F)cccc2C(c2cnc3c(F)cccn23)=N1 [Compound E-10, 5-fluoro-1-(8-fluoroimidazo[1,2-a]pyridin-3-yl)-3,3-dimethyl-4H-isoquinoline] | – | ≥ 80 | ≥ 80 | –
20 | CC1(C)Cc2c(Cl)cccc2C(c2cnc3c(F)cccn23)=N1 [Compound E-11, 5-chloro-1-(8-fluoroimidazo[1,2-a]pyridin-3-yl)-3,3-dimethyl-4H-isoquinoline] | 122 to 123 | ≥ 80 | ≥ 80 | –
21 | CC1(C)N=C(c2cnc3c(F)cccn23)c2cccc(F)c2C1O (stereo not shown) [Compound E-14, 5-fluoro-1-(8-fluoroimidazo[1,2-a]pyridin-3-yl)-3,3-dimethyl-4H-isoquinolin-4-ol] | 219 | ≥ 80 | – | –

Row | SMILES | melting point [°C] | inhibition of growth at 20 ppm [1] [%] | inhibition of growth at 20 ppm [2] [%] | also measured
22 | CC1(C)Cc2c(Cl)cccc2C(c2cnc3c(OC(F)F)cccn23)=N1 [Compound E-15, 5-chloro-1-[8-(difluoromethoxy)imidazo [1,2-a]pyridin-3-yl]-3,3-dimethyl-4H-isoquinoline] | 114 to 115 | – | – | inhibition of growth at 20 ppm [3]: ≥ 80%
23 | CC1(C)Cc2c(F)cccc2C(c2cnc3c(Br)cccn23)=N1 [Compound E-16, 1-(8-bromoimidazo[1,2-a]pyridin-3-yl)-5-fluoro-3,3-dimethyl-4H-isoquinoline] | 179 to 181 | ≥ 80 | – | –
24 | CSc1cccn2c(C3=NC(C)(C)Cc4c(F)cccc43)cnc12 [Compound E-17, 5-fluoro-3,3-dimethyl-1-(8-methylsulfanyl-imidazo[1,2-a]pyridin-3-yl)-4H-isoquinoline] | 119 to 120 | ≥ 80 | – | –
25 | CC1(C)N=C(c2cnc3c(F)cccn23)c2cccc(F)c2C1(F)F [Compound E-19, 4,4,5-trifluoro-1-(8-fluoroimidazo[1,2-a]pyridin-3-yl)-3,3-dimethyl-isoquinoline] | 145 to 146 | ≥ 80 | ≥ 80 | –
26 | CCc1cccn2c(C3=NC(C)(C)C(C)(C)c4c(F)cccc43)cnc12 [Compound E-21, 1-(8-ethylimidazo[1,2-a]pyridin-3-yl)-5-fluoro-3,3,4,4-tetramethyl-isoquinoline] | – | ≥ 80 | ≥ 80 | inhibition of growth at 20 ppm [3]: ≥ 80%; inhibition of growth at 20 ppm (Fusarium culmorum): ≥ 80%
27 | C#Cc1cccn2c(C3=NC(C)(C)C(C)(C)c4c(F)cccc43)cnc12 [Compound E-23, 1-(8-ethynylimidazo[1,2-a]pyridin-3-yl)-5-fluoro-3,3,4,4-tetramethyl-isoquinoline] | 169 to 170 | – | ≥ 80 | –
28 | COc1cccn2c(C3=NC(C)(C)C(C)(C)c4c(F)cccc43)cnc12 [Compound E-24, 5-fluoro-1-(8-methoxyimidazo[1,2-a]pyridin-3-yl)-3,3,4,4-tetramethyl-isoquinoline] | 130 | ≥ 80 | ≥ 80 | inhibition of growth at 20 ppm [3]: ≥ 80%
29 | CC1(C)N=C(c2cnc3c(O)cccn23)c2cccc(F)c2C1(C)C [Compound E-27, 3-(5-fluoro-3,3,4,4-tetramethyl-1-isoquinolyl)imidazo[1,2-a]pyridin-8-ol] | 271 to 272 | ≥ 80 | ≥ 80 | –
30 | CC1(C)N=C(c2cnc3c(C(F)(F)F)cccn23)c2cccc(F)c2C1(C)C [Compound E-29, 5-fluoro-3,3,4,4-tetramethyl-1-[8-(trifluoromethyl)imidazo [1,2-a]pyridin-3-yl]isoquinoline] | 141 to 142 | ≥ 80 | ≥ 80 | inhibition of growth at 20 ppm [3]: ≥ 80%
31 | Cc1cccc2ncc(C3=NC(C)(C)C(C)(C)c4c(F)cccc43)n12 [Compound E-30, 5-fluoro-3,3,4,4-tetramethyl-1-(5-methylimidazo[1,2-a]pyridin-3-yl)isoquinoline] | 139 to 140 | ≥ 80 | ≥ 80 | –
32 | CC1(C)N=C(c2cnc3c(Cl)cccn23)c2cccc(F)c2C1(C)C [Compound E-32, 1-(8-chloroimidazo[1,2-a]pyridin-3-yl)-5-fluoro-3,3,4,4-tetramethyl-isoquinoline] | 167 to 168 | ≥ 80 | ≥ 80 | inhibition of growth at 20 ppm (Fusarium culmorum): ≥ 80%
33 | Cc1nc2c(C)cccn2c1C1=NC(C)(C)C(C)(C)c2c(F)cccc21 [Compound E-40, 1-(2,8-dimethylimidazo[1,2-a]pyridin-3-yl)-5-fluoro-3,3,4,4-tetramethyl-isoquinoline] | – | ≥ 80 | ≥ 80 | –
34 | CC1(C)N=C(c2cnc3cc(C#N)ccn23)c2cccc(F)c2C1(C)C [Compound E-46, 3-(5-fluoro-3,3,4,4-tetramethyl-1-isoquinolyl)imidazo[1,2-a]pyridine-7-carbonitrile] | 193 to 194 | ≥ 80 | ≥ 80 | –
35 | Cc1ccn2c(C3=NC(C)(C)C(C)(C)c4c(F)cccc43)cnc2c1Cl [Compound E-47, 1-(8-chloro-7-methyl-imidazo[1,2-a]pyridin-3-yl)-5-fluoro-3,3,4,4-tetramethyl-isoquinoline] | 185 to 186 | ≥ 80 | ≥ 80 | inhibition of growth at 20 ppm (Fusarium culmorum): ≥ 80%
36 | COc1ccn2c(C3=NC(C)(C)C(C)(C)c4c(F)cccc43)cnc2c1 [Compound E-48, 5-fluoro-1-(7-methoxyimidazo[1,2-a]pyridin-3-yl)-3,3,4,4-tetramethyl-isoquinoline] | 139 to 140 | ≥ 80 | ≥ 80 | –
37 | CC1(C)N=C(c2cnc3cc(O)ccn23)c2cccc(F)c2C1(C)C [Compound E-49, 3-(5-fluoro-3,3,4,4-tetramethyl-1-isoquinolyl)imidazo[1,2-a]pyridin-7-ol] | 246 to 247 | ≥ 80 | ≥ 80 | –
38 | CC1(C)N=C(c2cnc3c(Cl)c(Cl)ccn23)c2ccccc2C1(F)F [Compound E-56, 1-(7,8-dichloroimidazo[1,2-a]pyridin-3-yl)-4,4-difluoro-3,3-dimethyl-isoquinoline] | > 210 | – | ≥ 80 | inhibition of growth at 60 ppm [4]: ≥ 80%
39 | CC1(C)Cc2c(Br)cccc2C(c2cnn3ccccc23)=N1 [Compound E-60, 5-bromo-3,3-dimethyl-1-pyrazolo[1,5-a]pyridin-3-yl-4H-isoquinoline] | – | – | ≥ 80 | –
40 | Cc1nn2ccccc2c1C1=NC(C)(C)C(C)(C)c2c(F)cccc21 [Compound E-62, 5-fluoro-3,3,4,4-tetramethyl-1-(2-methylpyrazolo[1,5-a]pyridin-3-yl)isoquinoline] | – | ≥ 80 | ≥ 80 | –
41 | Cc1cccn2ncc(C3=NC(C)(C)C(=O)c4ccccc43)c12 [Compound E-68, 3,3-dimethyl-1-(4-methylpyrazolo[1,5-a]pyridin-3-yl)isoquinolin-4-one] | 140 to 141 | – | ≥ 80 | –
42 | Cc1cccn2ncc(C3=NC(C)(C)C(=O)c4cc(F)ccc43)c12 [Compound E-75, 6-fluoro-3,3-dimethyl-1-(4-methylpyrazolo[1,5-a]pyridin-3-yl)isoquinolin-4-one] | 180 to 183 | – | ≥ 80 | –
